Columns and labels:
Type in all cases: cell-free
[1] = target: Serine/threonine-protein kinase OSR1 (Homo sapiens) (UniProt O95747); assay: Inhibition of human OSR1 in HL-60 cells lysate assessed as reduction of labeling of acyl-phosphate ATP probe at 100 nM
[2] = target: T1, Mitogen-activated protein kinase kinase kinase 5 (Homo sapiens) (UniProt Q99683); assay: Inhibition of human MAP3K5 in HL-60 cells lysate assessed as reduction of labeling of acyl-phosphate ATP probe at 100 nM
T1 sequence (whole entry): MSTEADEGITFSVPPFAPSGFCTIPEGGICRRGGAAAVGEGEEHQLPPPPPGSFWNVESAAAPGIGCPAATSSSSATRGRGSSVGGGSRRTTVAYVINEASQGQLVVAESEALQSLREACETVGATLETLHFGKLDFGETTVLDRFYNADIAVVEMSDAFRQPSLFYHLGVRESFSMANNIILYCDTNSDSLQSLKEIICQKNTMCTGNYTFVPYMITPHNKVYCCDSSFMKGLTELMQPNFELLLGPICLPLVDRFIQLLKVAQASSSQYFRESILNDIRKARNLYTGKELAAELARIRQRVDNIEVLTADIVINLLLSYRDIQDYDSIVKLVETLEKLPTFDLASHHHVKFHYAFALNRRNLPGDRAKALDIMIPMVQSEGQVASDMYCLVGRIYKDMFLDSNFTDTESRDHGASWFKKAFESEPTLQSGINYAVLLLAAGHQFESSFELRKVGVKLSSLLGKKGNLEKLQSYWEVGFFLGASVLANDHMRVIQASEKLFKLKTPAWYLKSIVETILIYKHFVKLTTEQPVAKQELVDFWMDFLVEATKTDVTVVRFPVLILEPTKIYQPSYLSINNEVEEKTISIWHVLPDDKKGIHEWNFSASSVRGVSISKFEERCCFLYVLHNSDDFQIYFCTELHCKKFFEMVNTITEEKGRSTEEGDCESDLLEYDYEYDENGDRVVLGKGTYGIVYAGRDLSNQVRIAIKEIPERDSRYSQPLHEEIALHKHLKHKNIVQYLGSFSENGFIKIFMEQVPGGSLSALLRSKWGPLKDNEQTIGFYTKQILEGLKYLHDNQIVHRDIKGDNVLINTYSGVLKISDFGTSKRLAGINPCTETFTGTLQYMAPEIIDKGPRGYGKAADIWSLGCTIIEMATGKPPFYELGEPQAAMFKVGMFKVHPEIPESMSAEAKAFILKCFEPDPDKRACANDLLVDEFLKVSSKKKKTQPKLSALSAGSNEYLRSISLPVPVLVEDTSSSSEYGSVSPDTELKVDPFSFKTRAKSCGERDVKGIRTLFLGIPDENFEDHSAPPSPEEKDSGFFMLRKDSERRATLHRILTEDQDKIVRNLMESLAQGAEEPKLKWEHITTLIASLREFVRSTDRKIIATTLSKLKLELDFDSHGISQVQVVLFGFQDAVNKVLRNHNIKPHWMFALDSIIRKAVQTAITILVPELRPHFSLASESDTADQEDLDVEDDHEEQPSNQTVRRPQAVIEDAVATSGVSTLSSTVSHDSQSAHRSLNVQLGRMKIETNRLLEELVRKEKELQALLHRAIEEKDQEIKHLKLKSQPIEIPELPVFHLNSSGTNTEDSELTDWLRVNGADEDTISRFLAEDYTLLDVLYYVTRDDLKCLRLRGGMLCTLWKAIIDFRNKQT

[3] = target: Serine/threonine-protein kinase tousled-like 2 (Homo sapiens) (UniProt Q86UE8); assay: Inhibition of human TLK2 in HL-60 cells lysate assessed as reduction of labeling of acyl-phosphate ATP probe at 100 nM
[4] = target: T2, Mixed lineage kinase domain-like protein (Homo sapiens) (UniProt Q8NB16); assay: Inhibition of human MLKL in HL-60 cells lysate assessed as reduction of labeling of acyl-phosphate ATP probe at 100 nM
T2 sequence (whole entry): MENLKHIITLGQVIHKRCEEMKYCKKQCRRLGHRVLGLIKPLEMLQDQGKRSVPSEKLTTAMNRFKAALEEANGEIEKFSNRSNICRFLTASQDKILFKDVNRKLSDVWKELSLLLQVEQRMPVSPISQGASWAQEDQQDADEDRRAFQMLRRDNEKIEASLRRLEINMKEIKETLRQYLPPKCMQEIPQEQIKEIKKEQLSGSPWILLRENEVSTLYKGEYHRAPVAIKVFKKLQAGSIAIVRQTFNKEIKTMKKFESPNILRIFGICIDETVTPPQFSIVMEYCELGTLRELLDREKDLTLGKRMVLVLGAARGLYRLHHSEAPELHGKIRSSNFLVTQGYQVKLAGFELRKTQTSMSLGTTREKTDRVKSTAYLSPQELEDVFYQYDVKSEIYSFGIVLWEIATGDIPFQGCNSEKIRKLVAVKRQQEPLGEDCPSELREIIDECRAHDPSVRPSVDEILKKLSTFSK

[5] = target: Mitogen-activated protein kinase 7 (Homo sapiens) (UniProt Q13164); assay: Inhibition of human Erk5 in HL-60 cells lysate assessed as reduction of labeling of acyl-phosphate ATP probe at 100 nM
[6] = target: T3, Dual specificity mitogen-activated protein kinase kinase 3 (Homo sapiens) (UniProt P46734); assay: Inhibition of human MAP2K3 in HL-60 cells lysate assessed as reduction of labeling of acyl-phosphate ATP probe at 100 nM
T3 sequence (whole entry): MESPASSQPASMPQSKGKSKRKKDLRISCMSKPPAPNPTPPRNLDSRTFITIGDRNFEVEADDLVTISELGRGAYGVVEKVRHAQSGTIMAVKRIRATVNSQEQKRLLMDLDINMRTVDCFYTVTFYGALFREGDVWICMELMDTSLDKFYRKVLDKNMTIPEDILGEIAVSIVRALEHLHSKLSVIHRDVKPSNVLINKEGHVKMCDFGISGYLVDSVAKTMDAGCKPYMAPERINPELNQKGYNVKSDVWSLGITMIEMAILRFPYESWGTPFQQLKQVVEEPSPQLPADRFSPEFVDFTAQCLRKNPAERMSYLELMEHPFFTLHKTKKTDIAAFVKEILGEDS

[7] = target: T4, EKC/KEOPS complex subunit TP53RK (Homo sapiens) (UniProt Q96S44); assay: Inhibition of human PRPK in HL-60 cells lysate assessed as reduction of labeling of acyl-phosphate ATP probe at 100 nM
T4 sequence (whole entry): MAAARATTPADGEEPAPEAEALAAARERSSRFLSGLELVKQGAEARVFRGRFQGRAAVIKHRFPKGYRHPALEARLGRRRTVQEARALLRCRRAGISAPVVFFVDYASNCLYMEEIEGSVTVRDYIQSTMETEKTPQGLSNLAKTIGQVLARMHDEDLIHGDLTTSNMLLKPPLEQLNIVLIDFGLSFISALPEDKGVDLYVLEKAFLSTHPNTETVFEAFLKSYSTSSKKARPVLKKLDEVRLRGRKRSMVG

[8] = target: Cyclin-dependent kinase 6 (Homo sapiens) (UniProt Q00534); assay: Inhibition of human CDK6 in HL-60 cells lysate assessed as reduction of labeling of acyl-phosphate ATP probe at 100 nM

Measured: inhibition

Cyclin-dependent kinase 6 (Homo sapiens), sequence (Q00534 whole entry): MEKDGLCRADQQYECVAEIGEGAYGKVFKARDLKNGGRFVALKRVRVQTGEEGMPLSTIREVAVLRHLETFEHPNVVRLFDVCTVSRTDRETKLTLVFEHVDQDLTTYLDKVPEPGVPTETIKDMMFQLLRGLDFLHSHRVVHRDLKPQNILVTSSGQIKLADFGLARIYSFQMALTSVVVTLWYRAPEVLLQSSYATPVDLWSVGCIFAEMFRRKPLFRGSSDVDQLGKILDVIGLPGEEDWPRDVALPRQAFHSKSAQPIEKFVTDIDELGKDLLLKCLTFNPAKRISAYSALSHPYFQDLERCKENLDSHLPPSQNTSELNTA
Mitogen-activated protein kinase 7 (Homo sapiens), sequence (Q13164 2-816 limits assumed): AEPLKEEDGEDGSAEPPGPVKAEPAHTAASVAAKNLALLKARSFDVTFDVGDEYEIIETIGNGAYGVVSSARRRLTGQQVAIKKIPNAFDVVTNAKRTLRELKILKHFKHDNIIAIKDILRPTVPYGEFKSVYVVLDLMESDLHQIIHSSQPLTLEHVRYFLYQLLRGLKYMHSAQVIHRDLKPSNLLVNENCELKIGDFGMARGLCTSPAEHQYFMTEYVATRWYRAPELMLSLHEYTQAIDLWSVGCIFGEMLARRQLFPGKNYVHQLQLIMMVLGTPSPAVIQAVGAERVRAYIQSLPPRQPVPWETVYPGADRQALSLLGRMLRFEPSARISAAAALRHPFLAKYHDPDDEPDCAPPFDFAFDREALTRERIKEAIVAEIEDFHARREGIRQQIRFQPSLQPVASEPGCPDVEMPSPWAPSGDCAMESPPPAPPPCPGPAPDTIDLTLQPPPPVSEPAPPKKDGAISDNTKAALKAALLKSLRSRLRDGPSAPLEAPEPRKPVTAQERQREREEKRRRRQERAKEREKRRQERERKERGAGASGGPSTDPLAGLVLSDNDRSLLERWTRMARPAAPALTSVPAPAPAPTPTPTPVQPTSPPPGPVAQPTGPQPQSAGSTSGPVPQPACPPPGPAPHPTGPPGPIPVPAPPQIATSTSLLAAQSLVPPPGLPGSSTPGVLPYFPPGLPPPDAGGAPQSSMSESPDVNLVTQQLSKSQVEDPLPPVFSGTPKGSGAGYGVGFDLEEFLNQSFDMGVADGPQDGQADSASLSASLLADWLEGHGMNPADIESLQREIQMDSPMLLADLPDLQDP
Serine/threonine-protein kinase OSR1 (Homo sapiens), sequence (O95747 2-527 limits assumed): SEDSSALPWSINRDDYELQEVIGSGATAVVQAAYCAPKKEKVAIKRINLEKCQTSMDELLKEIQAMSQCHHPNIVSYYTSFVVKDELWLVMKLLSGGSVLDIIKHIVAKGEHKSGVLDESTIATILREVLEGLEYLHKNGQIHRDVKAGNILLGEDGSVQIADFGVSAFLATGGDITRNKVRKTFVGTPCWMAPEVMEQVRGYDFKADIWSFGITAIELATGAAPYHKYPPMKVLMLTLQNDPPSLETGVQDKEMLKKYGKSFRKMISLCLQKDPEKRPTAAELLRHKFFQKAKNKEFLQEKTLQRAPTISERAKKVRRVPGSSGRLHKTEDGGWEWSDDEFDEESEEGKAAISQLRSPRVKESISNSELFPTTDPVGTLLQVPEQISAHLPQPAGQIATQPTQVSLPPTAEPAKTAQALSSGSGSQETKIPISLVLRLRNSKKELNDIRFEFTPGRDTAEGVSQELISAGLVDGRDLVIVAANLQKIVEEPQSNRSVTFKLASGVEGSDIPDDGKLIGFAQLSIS
Serine/threonine-protein kinase tousled-like 2 (Homo sapiens), sequence (Q86UE8 whole entry, looked up, the tested form may be a part): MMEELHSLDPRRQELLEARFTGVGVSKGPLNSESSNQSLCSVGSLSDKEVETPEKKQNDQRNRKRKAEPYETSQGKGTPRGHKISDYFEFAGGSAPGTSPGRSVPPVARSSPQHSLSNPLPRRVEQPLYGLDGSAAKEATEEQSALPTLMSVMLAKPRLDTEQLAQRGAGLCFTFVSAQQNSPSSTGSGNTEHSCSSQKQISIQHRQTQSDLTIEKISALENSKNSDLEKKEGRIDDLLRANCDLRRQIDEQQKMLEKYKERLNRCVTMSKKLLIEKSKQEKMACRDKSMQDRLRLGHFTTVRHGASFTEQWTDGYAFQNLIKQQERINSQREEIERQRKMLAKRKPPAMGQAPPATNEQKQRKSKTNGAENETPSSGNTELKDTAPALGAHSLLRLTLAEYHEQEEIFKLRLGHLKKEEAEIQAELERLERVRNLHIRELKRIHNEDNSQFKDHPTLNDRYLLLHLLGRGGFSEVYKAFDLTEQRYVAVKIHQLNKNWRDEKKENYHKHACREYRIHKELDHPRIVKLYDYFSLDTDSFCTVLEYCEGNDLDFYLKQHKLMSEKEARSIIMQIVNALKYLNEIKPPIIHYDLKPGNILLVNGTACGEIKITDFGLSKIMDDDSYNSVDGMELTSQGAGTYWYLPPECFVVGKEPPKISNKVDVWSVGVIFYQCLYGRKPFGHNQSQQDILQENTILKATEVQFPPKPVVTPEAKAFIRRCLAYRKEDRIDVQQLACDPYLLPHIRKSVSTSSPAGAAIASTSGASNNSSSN

C[C@H]1COc2c(NCCCc3ccccn3)c(F)c(N)c3c(=O)c(C#N)cn1c23
< 35%: all assays above

C[C@H]1COc2c(NCCCc3ccccn3)c(F)c(N)c3c(=O)c(C(=O)O)cn1c23
< 35%: all assays above

C[C@H]1COc2c(NCCCn3cccn3)c(F)c(N)c3c(=O)c(C(=O)O)cn1c23
< 35%: all assays above

C[C@H]1COc2c(NCCCn3cccn3)c(F)c(N)c3c(=O)c(C#N)cn1c23
< 35%: all assays above

From ChEMBL document CHEMBL1938230, “6-Position optimization of tricyclic 4-quinolone-based inhibitors of glycogen synthase kinase-3β: discovery of nitrile derivatives with picomolar potency” (Bioorg Med Chem Lett, 2012)
